Measured values taken from PubChem BioAssay (NCI).
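Tested at 5 concentrations; 48 h exposure; 96-well plates; endpoints linearly interpolated, else capped at highest concentration. Here, GI50 denotes the concentration required for 50% inhibition of growth. TGI is the concentration that stops growth completely.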

How the values were obtained:
Assay in all cases: inhibition of tumour cell growth, NCI panel, 48 h
786-0 renal = test system: 786-0 renal
A498 renal = test system: A498 renal
ACHN renal = test system: ACHN renal
BT-549 breast = test system: BT-549 breast
CAKI-1 renal = test system: CAKI-1 renal
COLO 205 colon = test system: COLO 205 colon
DU-145 prostate = test system: DU-145 prostate
HCC-2998 colon = test system: HCC-2998 colon
HCT-116 colon = test system: HCT-116 colon
HCT-15 colon = test system: HCT-15 colon
HL-60(TB) leukemia = test system: HL-60(TB) leukemia
HOP-62 NSCLC = test system: HOP-62 NSCLC
HOP-92 NSCLC = test system: HOP-92 NSCLC
HS 578T breast = test system: HS 578T breast
HT29 colon = test system: HT29 colon
IGROV1 ovarian = test system: IGROV1 ovarian
K-562 leukemia = test system: K-562 leukemia
KM12 colon = test system: KM12 colon
LOX IMVI melanoma = test system: LOX IMVI melanoma
M14 melanoma = test system: M14 melanoma
MALME-3M melanoma = test system: MALME-3M melanoma
MCF7 breast = test system: MCF7 breast
MDA-MB-231 breast = test system: MDA-MB-231 breast
MDA-MB-435 = test system: MDA-MB-435
MOLT-4 leukemia = test system: MOLT-4 leukemia
NCI-H226 lung = test system: NCI-H226 lung
NCI-H23 lung = test system: NCI-H23 lung
NCI-H460 lung = test system: NCI-H460 lung
NCI/ADR-RES ovarian = test system: NCI/ADR-RES ovarian
OVCAR-3 ovarian = test system: OVCAR-3 ovarian
OVCAR-4 ovarian = test system: OVCAR-4 ovarian
OVCAR-5 ovarian = test system: OVCAR-5 ovarian
OVCAR-8 ovarian = test system: OVCAR-8 ovarian
PC-3 prostate = test system: PC-3 prostate
RPMI-8226 leukemia = test system: RPMI-8226 leukemia
RXF 393 renal = test system: RXF 393 renal
SF-268 CNS = test system: SF-268 CNS
SF-295 CNS = test system: SF-295 CNS
SF-539 CNS = test system: SF-539 CNS
SK-MEL-2 melanoma = test system: SK-MEL-2 melanoma
SK-MEL-28 melanoma = test system: SK-MEL-28 melanoma
SK-MEL-5 melanoma = test system: SK-MEL-5 melanoma
SK-OV-3 ovarian = test system: SK-OV-3 ovarian
SN12C renal = test system: SN12C renal
SNB-19 CNS = test system: SNB-19 CNS
SNB-75 CNS = test system: SNB-75 CNS
SR leukemia = test system: SR leukemia
SW-620 colon = test system: SW-620 colon
T-47D breast = test system: T-47D breast
TK-10 renal = test system: TK-10 renal
U251 CNS = test system: U251 CNS
UACC-62 melanoma = test system: UACC-62 melanoma
UO-31 renal = test system: UO-31 renal

`C/C(=N\NC(=O)c1ccccc1N)c1ccccc1O` gave a GI50 (786-0 renal) of 5.37 µM, a TGI (786-0 renal) of 80.4 µM and a GI50 (A498 renal) of 10.4 µM. The TGI (A498 renal) was > 100 µM, the GI50 (ACHN renal) was 2.63 µM and the TGI (ACHN renal) was > 100 µM. The GI50 (BT-549 breast) was 14.9 µM, the TGI (BT-549 breast) was > 100 µM and the GI50 (CAKI-1 renal) was 2.34 µM. The TGI (CAKI-1 renal) was > 100 µM, the GI50 (COLO 205 colon) was 3.23 µM and the TGI (COLO 205 colon) was > 100 µM. The GI50 (DU-145 prostate) was 4.67 µM, the TGI (DU-145 prostate) was > 100 µM and the GI50 (HCC-2998 colon) was 5.8 µM. For the same molecule, the TGI (HCC-2998 colon) was > 100 µM, the GI50 (HCT-116 colon) was 2.4 µM and the TGI (HCT-116 colon) was > 100 µM. For the same molecule, the GI50 (HCT-15 colon) was 1.44 µM, the TGI (HCT-15 colon) was > 100 µM and the GI50 (HL-60(TB) leukemia) was 3.01 µM. The TGI (HL-60(TB) leukemia) was > 100 µM, the GI50 (HOP-62 NSCLC) was 4.4 µM and the TGI (HOP-62 NSCLC) was > 100 µM. The GI50 (HOP-92 NSCLC) was 24.7 µM, the TGI (HOP-92 NSCLC) was > 100 µM and the GI50 (HS 578T breast) was 16.7 µM. The TGI (HS 578T breast) was > 100 µM, the GI50 (HT29 colon) was 8.58 µM and the TGI (HT29 colon) was > 100 µM. For the same molecule, the GI50 (IGROV1 ovarian) was 3.56 µM, the TGI (IGROV1 ovarian) was > 100 µM and the GI50 (K-562 leukemia) was 3.72 µM. For the same molecule, the TGI (K-562 leukemia) was > 100 µM, the GI50 (KM12 colon) was 3.92 µM and the TGI (KM12 colon) was > 100 µM. For the same molecule, the GI50 (LOX IMVI melanoma) was 4.09 µM, the TGI (LOX IMVI melanoma) was > 100 µM and the GI50 (M14 melanoma) was 4.29 µM. The TGI (M14 melanoma) was 57.5 µM, the GI50 (MALME-3M melanoma) was 19.4 µM and the TGI (MALME-3M melanoma) was > 100 µM. For the same molecule, the GI50 (MCF7 breast) was 2.71 µM, the TGI (MCF7 breast) was > 100 µM and the GI50 (MDA-MB-231 breast) was 5.24 µM. For the same molecule, the TGI (MDA-MB-231 breast) was > 100 µM, the GI50 (MDA-MB-435) was 8.53 µM and the TGI (MDA-MB-435) was > 100 µM. For the same molecule, the GI50 (MOLT-4 leukemia) was 3.17 µM, the TGI (MOLT-4 leukemia) was > 100 µM and the GI50 (NCI-H226 lung) was 5.14 µM. The TGI (NCI-H226 lung) was > 100 µM, the GI50 (NCI-H23 lung) was 7.33 µM and the TGI (NCI-H23 lung) was > 100 µM. The GI50 (NCI-H460 lung) was 1.65 µM, the TGI (NCI-H460 lung) was > 100 µM and the GI50 (NCI/ADR-RES ovarian) was 4.52 µM. For the same molecule, the TGI (NCI/ADR-RES ovarian) was > 100 µM, the GI50 (OVCAR-3 ovarian) was 2.79 µM and the TGI (OVCAR-3 ovarian) was > 100 µM. The GI50 (OVCAR-4 ovarian) was 2.14 µM, the TGI (OVCAR-4 ovarian) was > 100 µM and the GI50 (OVCAR-5 ovarian) was 4.45 µM. The TGI (OVCAR-5 ovarian) was > 100 µM, the GI50 (OVCAR-8 ovarian) was 3.16 µM and the TGI (OVCAR-8 ovarian) was > 100 µM. For the same molecule, the GI50 (PC-3 prostate) was 6.95 µM, the TGI (PC-3 prostate) was > 100 µM and the GI50 (RPMI-8226 leukemia) was 9.51 µM. For the same molecule, the TGI (RPMI-8226 leukemia) was > 100 µM, the GI50 (RXF 393 renal) was 11.2 µM and the TGI (RXF 393 renal) was > 100 µM. For the same molecule, the GI50 (SF-268 CNS) was 3.05 µM, the TGI (SF-268 CNS) was > 100 µM and the GI50 (SF-295 CNS) was 3.23 µM. For the same molecule, the TGI (SF-295 CNS) was > 100 µM, the GI50 (SF-539 CNS) was 3.26 µM and the TGI (SF-539 CNS) was > 100 µM. The GI50 (SK-MEL-2 melanoma) was 12.5 µM, the TGI (SK-MEL-2 melanoma) was > 100 µM and the GI50 (SK-MEL-28 melanoma) was 8.44 µM. The TGI (SK-MEL-28 melanoma) was > 100 µM, the GI50 (SK-MEL-5 melanoma) was 3.83 µM and the TGI (SK-MEL-5 melanoma) was 57.7 µM. The GI50 (SK-OV-3 ovarian) was 13.4 µM, the TGI (SK-OV-3 ovarian) was > 100 µM and the GI50 (SN12C renal) was 5.25 µM. For the same molecule, the TGI (SN12C renal) was > 100 µM, the GI50 (SNB-19 CNS) was 9.72 µM and the TGI (SNB-19 CNS) was > 100 µM. For the same molecule, the GI50 (SNB-75 CNS) was > 100 µM, the TGI (SNB-75 CNS) was > 100 µM and the GI50 (SR leukemia) was 2.83 µM. The TGI (SR leukemia) was 66.6 µM, the GI50 (SW-620 colon) was 5.05 µM and the TGI (SW-620 colon) was > 100 µM. The GI50 (T-47D breast) was 2.6 µM, the TGI (T-47D breast) was > 100 µM and the GI50 (TK-10 renal) was 1.5 µM. For the same molecule, the TGI (TK-10 renal) was > 100 µM, the GI50 (U251 CNS) was 2.21 µM and the TGI (U251 CNS) was > 100 µM. The GI50 (UACC-62 melanoma) was 3.39 µM, the TGI (UACC-62 melanoma) was 47.5 µM and the GI50 (UO-31 renal) was 1.94 µM. For the same molecule, the TGI (UO-31 renal) was > 100 µM.
